The test deals with arteriovenous shunt model in rats. As to the kind of experiment: Antithrombotic effect in an arteriovenous shunt model in rats. Type of test: in vivo. How it is done: a) Determination of the Antithrombotic Effect in an Arteriovenous Shunt Model in Rats Fasting male rats (strain: HSD CPB:WU) were anesthetized by intraperitoneal administration of a Rompun/Ketavet solution (12 mg/kg/50 mg/kg). Thrombi were generated in an arteriovenous shunt in which a thrombogenic thread was secured, based on the method described by P C Wong et al. (Wong […], Nguan O, Watson […]. […] For this purpose, the left jugular vein and the right carotid artery were exposed. An 8 cm-long polyethylene catheter (PE60, Becton-Dickinson), followed by a 6 cm-long Tygon tube (R-3606, ID 3.2 mm, Kronlab), which contained a roughened, thrombogenic nylon thread (60×0.26 mm, […]) made into a double loop, was secured in the artery. A 2 cm-long polyethylene catheter (PE60, Becton-Dickinson) was secured in the jugular vein and connected via a 6 cm-long polyethylene catheter (PE160, Becton-Dickinson) to the Tygon tube. The tubes were filled with physiological saline solution before the shunt was opened. The extracorporeal circulation was maintained for 15 minutes. The shunt was then removed, and the nylon thread with the thrombus was immediately weighed. The empty weight of nylon thread has been determined before the start of the test. The FXa inhibitor (such as rivaroxaban) was administered to the animals intravenously, and acetylsalicylic acid (ASA) and/or ADP receptor antagonist (such as clopidogrel) was administered orally by gavage before setting up the extracorporeal circulation.

The mark [1] stands for this setting: doses [mg/kg]: Example 44 0.01 iv, Clopi + ASA 1 po + 3 po, triple 0.01 iv + 1 po + 3 po.
Setting [2] is: doses [mg/kg]: Example 44 0.03 iv, Clopi + ASA 1 po + 3 po, triple 0.03 iv + 1 po + 3 po.

On to `O=C(NC[C@H]1CN(c2ccc(N3CCOCC3=O)cc2)C(=O)O1)c1ccc(Cl)s1` [Example 44, 5-Chloro-N-({(5S)-2-oxo-3-[4-(3-oxo-4-morpholinyl)phenyl]-1,3-oxazolidin-5-yl}methyl)-2-thiophencarboxamide], for which, under setting [1], the “Antithrombotic effect (assessment in words)” value is “No effect” and the “Thrombus reduction [%]” value came to 18%. Under setting [2], the “Antithrombotic effect (assessment in words)” value is recorded as “No effect” and the “Thrombus weight reduction [%]” value was 20%. For the same compound, the “Antithrombotic effect, summary of Table 1 in words” value (doses of Table 1) was “ineffective”.

Values taken from patent US20160303138A1, “Combination Therapy Of Substituted Oxazolidinones” (Bayer Intellectual Property GMBH, priority 2006, published 2016).
